Measured values: patent publication US10604524B2, “Pyrropyrimidine compounds as MNKs inhibitors” (LIFEARC, priority 2015, dated 2020)

Tests used:
Test in all cases: Kinase selectivity screen
RPS6KA1 = RPS6KA1 (Homo sapiens, UniProt Q15418); conditions: read-out: % Inhibition RPS6KA1
YES1 = YES1 (Homo sapiens, UniProt P07947); conditions: read-out: % Inhibition YES1
PAK4 = PAK4 (Homo sapiens, UniProt O96013); conditions: read-out: % Inhibition PAK4
STK17A = STK17A (Homo sapiens, UniProt Q9UEE5); conditions: read-out: % Inhibition STK17A
KIT = KIT (Homo sapiens, UniProt P10721); conditions: read-out: % Inhibition KIT
DYRK2 = DYRK2 (Homo sapiens, UniProt Q92630); conditions: read-out: % Inhibition DYRK2
CDK9/CCNT1 = CDK9/CCNT1 (Homo sapiens, UniProt P50750); conditions: read-out: % Inhibition CDK9/CCNT1
GSK3A = GSK3A (Homo sapiens, UniProt P49840); conditions: read-out: % Inhibition GSK3A
PAK1 = PAK1 (Homo sapiens, UniProt Q13153); conditions: read-out: % Inhibition PAK1
IRAK4 = IRAK4 (Homo sapiens, UniProt Q9NWZ3); conditions: read-out: % Inhibition IRAK4
IGF1R = IGF1R (Homo sapiens, UniProt P08069); conditions: read-out: % Inhibition IGF1R
PIP5K1C = PIP5K1C (Homo sapiens, UniProt O60331); conditions: read-out: % Inhibition PIP5K1C
DMPK = DMPK (Homo sapiens, UniProt Q09013); conditions: read-out: % Inhibition DMPK
PRKAA2 = PRKAA2 (Homo sapiens, UniProt P54646); conditions: read-out: % Inhibition PRKAA2
PTK2 = PTK2 (Homo sapiens, UniProt Q05397); conditions: read-out: % Inhibition PTK2
CDK6/CCND3 = CDK6/CCND3 (Homo sapiens, UniProt Q00534); conditions: read-out: % Inhibition CDK6/CCND3
FGFR3 = FGFR3 (Homo sapiens, UniProt P22607); conditions: read-out: % Inhibition FGFR3
MST1R = MST1R (Homo sapiens, UniProt Q04912); conditions: read-out: % Inhibition MST1R
LCK = LCK (Homo sapiens, UniProt P06239); conditions: read-out: % Inhibition LCK
SGK1 = SGK1 (Homo sapiens, UniProt O00141); conditions: read-out: % Inhibition SGK1
CSNK1G1 = CSNK1G1 (Homo sapiens, UniProt Q9HCP0); conditions: read-out: % Inhibition CSNK1G1
MYLK = MYLK (Homo sapiens, UniProt Q15746); conditions: read-out: % Inhibition MYLK
PDGFRB = PDGFRB (Homo sapiens, UniProt P09619); conditions: read-out: % Inhibition PDGFRB
CSNK2A2 = CSNK2A2 (Homo sapiens, UniProt P19784); conditions: read-out: % Inhibition CSNK2A2
PRKCQ = PRKCQ (Homo sapiens, UniProt Q04759); conditions: read-out: % Inhibition PRKCQ
AKT1 = AKT1 (Homo sapiens, UniProt P31749); conditions: read-out: % Inhibition AKT1
CAMK2B = CAMK2B (Homo sapiens, UniProt Q13554); conditions: read-out: % Inhibition CAMK2B
FLT3 = FLT3 (Homo sapiens, UniProt P36888); conditions: read-out: % Inhibition FLT3
STK10 = STK10 (Homo sapiens, UniProt O94804); conditions: read-out: % Inhibition STK10
MTOR = MTOR (Homo sapiens, UniProt P42345); conditions: read-out: % Inhibition MTOR
ULK2 = ULK2 (Homo sapiens, UniProt Q8IYT8); conditions: read-out: % Inhibition ULK2
PAK2 = PAK2 (Homo sapiens, UniProt Q13177); conditions: read-out: % Inhibition PAK2
ROCK2 = ROCK2 (Homo sapiens, UniProt O75116); conditions: read-out: % Inhibition ROCK2
FGFR1 = FGFR1 (Homo sapiens, UniProt P11362); conditions: read-out: % Inhibition FGFR1

GSK3A, sequence (P49840 whole entry, species assumed): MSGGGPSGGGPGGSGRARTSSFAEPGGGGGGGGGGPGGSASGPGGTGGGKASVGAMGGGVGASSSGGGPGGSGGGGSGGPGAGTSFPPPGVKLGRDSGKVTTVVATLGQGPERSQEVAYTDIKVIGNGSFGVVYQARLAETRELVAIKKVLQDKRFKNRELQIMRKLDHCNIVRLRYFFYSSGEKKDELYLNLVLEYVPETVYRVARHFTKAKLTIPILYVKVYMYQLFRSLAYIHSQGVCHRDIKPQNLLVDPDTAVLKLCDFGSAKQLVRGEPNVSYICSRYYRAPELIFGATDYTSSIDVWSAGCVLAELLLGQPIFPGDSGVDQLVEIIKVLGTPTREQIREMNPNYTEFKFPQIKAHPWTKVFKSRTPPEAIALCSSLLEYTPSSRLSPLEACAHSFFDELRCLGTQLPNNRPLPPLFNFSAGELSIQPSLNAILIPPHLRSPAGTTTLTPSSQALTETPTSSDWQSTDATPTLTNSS
CDK9/CCNT1, sequence (P50750 whole entry, species assumed): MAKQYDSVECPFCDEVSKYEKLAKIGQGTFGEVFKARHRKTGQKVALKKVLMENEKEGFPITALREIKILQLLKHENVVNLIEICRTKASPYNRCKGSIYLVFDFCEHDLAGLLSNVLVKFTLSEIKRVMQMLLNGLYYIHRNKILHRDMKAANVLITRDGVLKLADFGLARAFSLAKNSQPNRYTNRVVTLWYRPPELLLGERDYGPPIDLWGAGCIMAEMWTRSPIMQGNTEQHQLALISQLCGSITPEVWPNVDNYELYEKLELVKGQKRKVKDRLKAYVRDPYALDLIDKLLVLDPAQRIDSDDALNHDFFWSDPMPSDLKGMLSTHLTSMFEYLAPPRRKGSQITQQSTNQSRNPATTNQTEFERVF
CDK9/CCNT1, sequence (O60563 whole entry partner, species assumed): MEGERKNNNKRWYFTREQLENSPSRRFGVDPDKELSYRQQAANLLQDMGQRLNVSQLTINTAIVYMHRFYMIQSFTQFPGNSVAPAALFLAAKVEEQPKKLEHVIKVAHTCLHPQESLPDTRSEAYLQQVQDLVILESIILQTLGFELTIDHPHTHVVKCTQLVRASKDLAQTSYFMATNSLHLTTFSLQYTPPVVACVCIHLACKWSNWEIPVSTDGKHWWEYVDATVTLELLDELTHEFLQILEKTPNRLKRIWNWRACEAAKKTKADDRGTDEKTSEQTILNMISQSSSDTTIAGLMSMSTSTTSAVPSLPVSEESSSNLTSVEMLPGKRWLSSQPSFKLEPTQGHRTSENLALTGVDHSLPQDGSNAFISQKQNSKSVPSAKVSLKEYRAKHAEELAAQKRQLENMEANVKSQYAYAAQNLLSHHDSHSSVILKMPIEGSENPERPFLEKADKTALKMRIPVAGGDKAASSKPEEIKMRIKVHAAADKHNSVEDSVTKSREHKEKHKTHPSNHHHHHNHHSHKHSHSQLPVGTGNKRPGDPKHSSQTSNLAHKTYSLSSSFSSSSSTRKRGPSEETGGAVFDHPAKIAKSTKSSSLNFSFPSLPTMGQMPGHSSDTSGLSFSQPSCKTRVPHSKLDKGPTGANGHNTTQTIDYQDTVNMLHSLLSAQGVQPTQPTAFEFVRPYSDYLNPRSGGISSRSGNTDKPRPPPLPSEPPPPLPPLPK
DYRK2, sequence (Q92630 whole entry, species assumed): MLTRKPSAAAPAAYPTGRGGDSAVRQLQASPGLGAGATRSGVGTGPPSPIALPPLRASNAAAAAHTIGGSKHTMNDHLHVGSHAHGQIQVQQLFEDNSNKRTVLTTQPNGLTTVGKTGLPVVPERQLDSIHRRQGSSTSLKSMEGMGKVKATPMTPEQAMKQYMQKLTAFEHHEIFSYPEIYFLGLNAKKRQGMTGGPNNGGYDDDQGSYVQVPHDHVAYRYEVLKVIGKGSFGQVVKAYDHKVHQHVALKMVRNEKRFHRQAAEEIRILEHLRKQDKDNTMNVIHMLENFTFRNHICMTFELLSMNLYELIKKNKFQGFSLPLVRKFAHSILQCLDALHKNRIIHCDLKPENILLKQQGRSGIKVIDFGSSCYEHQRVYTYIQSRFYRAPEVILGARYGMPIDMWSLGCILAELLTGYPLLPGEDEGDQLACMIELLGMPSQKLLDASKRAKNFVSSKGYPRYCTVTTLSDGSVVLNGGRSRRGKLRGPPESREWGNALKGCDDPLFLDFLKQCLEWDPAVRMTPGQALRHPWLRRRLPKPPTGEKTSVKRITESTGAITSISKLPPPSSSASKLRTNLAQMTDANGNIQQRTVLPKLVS
MST1R, sequence (Q04912 25-1400, species assumed): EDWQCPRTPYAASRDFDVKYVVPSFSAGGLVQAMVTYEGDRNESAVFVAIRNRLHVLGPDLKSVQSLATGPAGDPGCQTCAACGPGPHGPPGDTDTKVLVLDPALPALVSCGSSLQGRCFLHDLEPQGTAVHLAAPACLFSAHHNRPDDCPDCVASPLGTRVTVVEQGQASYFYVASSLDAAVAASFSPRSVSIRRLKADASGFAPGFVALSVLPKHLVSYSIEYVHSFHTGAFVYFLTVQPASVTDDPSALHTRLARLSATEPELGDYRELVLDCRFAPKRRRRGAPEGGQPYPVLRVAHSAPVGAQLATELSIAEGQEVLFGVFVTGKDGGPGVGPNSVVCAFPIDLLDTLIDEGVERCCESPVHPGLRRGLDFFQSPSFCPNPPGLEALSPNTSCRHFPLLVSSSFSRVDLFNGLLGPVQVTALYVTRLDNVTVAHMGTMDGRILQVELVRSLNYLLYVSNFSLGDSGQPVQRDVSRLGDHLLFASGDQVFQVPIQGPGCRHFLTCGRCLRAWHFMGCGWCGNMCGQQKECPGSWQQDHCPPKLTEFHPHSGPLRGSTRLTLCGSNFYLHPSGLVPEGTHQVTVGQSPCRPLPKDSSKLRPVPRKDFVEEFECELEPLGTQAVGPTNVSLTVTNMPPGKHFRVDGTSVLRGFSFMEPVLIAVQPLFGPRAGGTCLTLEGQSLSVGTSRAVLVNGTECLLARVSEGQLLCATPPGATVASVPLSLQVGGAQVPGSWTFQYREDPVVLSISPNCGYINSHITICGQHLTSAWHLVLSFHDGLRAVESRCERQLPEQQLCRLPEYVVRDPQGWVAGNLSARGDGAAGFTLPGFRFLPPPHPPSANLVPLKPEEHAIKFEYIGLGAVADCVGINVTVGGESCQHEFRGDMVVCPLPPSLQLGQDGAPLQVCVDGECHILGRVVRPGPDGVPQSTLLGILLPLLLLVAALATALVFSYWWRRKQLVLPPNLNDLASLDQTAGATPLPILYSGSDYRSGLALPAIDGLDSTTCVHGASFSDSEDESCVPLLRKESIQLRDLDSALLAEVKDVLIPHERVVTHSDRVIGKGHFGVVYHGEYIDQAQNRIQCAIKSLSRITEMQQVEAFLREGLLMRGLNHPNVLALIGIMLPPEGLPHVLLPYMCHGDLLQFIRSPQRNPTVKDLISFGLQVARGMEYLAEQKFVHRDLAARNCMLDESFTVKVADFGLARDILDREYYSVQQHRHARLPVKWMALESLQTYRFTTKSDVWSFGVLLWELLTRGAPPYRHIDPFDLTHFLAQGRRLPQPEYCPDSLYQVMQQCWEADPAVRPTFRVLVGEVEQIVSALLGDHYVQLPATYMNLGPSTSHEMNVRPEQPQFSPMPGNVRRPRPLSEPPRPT
LCK, sequence (P06239 whole entry, species assumed): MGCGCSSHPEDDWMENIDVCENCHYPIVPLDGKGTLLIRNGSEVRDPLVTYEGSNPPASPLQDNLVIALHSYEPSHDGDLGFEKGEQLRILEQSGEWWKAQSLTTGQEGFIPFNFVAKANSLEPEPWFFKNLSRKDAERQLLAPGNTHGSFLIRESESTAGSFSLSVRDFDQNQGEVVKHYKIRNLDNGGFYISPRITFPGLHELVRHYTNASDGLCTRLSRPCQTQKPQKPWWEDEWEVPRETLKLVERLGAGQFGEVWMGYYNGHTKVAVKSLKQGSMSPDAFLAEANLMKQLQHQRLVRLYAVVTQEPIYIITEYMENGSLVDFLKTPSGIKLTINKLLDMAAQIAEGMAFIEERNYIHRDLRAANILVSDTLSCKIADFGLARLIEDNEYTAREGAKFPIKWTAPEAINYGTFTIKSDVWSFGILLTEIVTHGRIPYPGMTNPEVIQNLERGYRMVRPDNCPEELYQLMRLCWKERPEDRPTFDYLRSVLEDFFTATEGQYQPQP
PAK1, sequence (Q13153 whole entry): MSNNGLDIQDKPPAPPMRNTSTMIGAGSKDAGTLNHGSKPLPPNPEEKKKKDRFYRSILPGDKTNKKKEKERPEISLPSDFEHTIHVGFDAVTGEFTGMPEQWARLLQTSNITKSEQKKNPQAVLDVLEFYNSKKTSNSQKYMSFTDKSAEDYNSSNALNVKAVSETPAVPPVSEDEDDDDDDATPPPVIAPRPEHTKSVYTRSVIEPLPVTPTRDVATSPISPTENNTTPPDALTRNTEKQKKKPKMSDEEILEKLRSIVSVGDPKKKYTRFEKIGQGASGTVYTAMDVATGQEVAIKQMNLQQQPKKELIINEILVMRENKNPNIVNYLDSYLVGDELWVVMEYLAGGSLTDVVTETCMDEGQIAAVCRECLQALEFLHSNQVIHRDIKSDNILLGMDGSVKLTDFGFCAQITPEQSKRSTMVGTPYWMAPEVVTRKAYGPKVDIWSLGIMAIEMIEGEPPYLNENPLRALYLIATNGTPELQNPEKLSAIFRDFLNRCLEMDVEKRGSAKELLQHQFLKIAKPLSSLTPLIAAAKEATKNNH
SGK1, sequence (O00141 whole entry, species assumed): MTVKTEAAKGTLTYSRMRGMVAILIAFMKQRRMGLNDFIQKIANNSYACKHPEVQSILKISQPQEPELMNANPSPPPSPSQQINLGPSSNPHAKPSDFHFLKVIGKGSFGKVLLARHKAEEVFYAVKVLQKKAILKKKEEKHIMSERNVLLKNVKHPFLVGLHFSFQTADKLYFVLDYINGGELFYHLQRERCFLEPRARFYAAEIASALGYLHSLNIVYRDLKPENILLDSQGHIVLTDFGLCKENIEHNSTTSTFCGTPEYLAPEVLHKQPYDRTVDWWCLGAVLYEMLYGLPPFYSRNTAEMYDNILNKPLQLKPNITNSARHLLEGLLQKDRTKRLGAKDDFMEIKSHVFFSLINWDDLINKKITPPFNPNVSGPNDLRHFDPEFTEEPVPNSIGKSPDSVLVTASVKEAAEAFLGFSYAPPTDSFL

Work on CC(C)Oc1cc(F)ccc1Nc1ncnc2cc(C(=O)NCCCN(C)C)n(C)c12 [Example 40, N-[3-(dimethylamino)propyl]-4-{[4-fluoro-2-(propan-2-yloxy)phenyl]amino}-5-methyl-5H-pyrrolo[3,2-d]pyrimidine-6-carboxamide] yielded an inhibition at 1 µM (RPS6KA1) of 0%, an inhibition at 1 µM (YES1) of 0% and an inhibition at 1 µM (PAK4) of 0%. The inhibition at 1 µM (STK17A) was 2%, the inhibition at 1 µM (KIT) was 2% and the inhibition at 1 µM (DYRK2) was 8%. The inhibition at 1 µM (CDK9/CCNT1) was 0%, the inhibition at 1 µM (GSK3A) was 0% and the inhibition at 1 µM (PAK1) was 0%. The inhibition at 1 µM (IRAK4) was 0%, the inhibition at 1 µM (IGF1R) was 0% and the inhibition at 1 µM (PIP5K1C) was 6%. For the same compound, the inhibition at 1 µM (DMPK) was 0%, the inhibition at 1 µM (PRKAA2) was 0% and the inhibition at 1 µM (PTK2) was 7%. The inhibition at 1 µM (CDK6/CCND3) was 0%, the inhibition at 1 µM (FGFR3) was 10% and the inhibition at 1 µM (MST1R) was 0%. It also gave an inhibition at 1 µM (LCK) of 0%, an inhibition at 1 µM (SGK1) of 0% and an inhibition at 1 µM (CSNK1G1) of 0%. It also gave an inhibition at 1 µM (MYLK) of 0%, an inhibition at 1 µM (PDGFRB) of 5% and an inhibition at 1 µM (CSNK2A2) of 0%. For the same compound, the inhibition at 1 µM (PRKCQ) was 0%, the inhibition at 1 µM (AKT1) was 0% and the inhibition at 1 µM (CAMK2B) was 14%. For the same compound, the inhibition at 1 µM (FLT3) was 24%, the inhibition at 1 µM (STK10) was 0% and the inhibition at 1 µM (MTOR) was 0%. The inhibition at 1 µM (ULK2) was 0%, the inhibition at 1 µM (PAK2) was 0% and the inhibition at 1 µM (ROCK2) was 0%. It also gave an inhibition at 1 µM (FGFR1) of 0%.
